The source of these data is patent US8445501B2, “Substituted 7-carboxamido-pyrrolo[3,2-d]pyrimidines” (Takeda GmbH, priority 2008, dated 2013).

Structures are written as SMILES.

The target of this experiment is T1, human PDE5 (Homo sapiens, UniProt O76074).
T1 construct: from tissue; host or cells: platelets from fresh blood of human donors (lysate, 10,000 g supernatant)
Briefly: Inhibition of the type 5 phosphodiesterase (PDE5) activity, modified SPA test with platelet lysate. The settings on record: PDE5 from human platelet lysate, 0.5 μM cGMP. The experiment is classed as biochemical. An outline of the steps:
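SPA-based cGMP hydrolysis, [3H]cGMP tracer in 0.5 μM cGMP, by sonicated human platelet lysate; motapizone (1 μM) and a PDE2 inhibitor (10 nM) block other PDEs. Reaction 15 min at 37 °C after 5 min preincubation, quenched with beads containing IBMX. IC50 from concentration-effect curves.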
Broadly, the IC50 is the concentration at which inhibition is half-maximal. Higher therefore signals a need for much substance. In turn, `C[C@H](O)C(=O)N1CCOC(CNC(=O)c2c[nH]c3c(-c4c(OCC5CC5)ccc5c4OCO5)ncnc23)C1` (stereo partly drawn) [Example 194, 4-(5-Cyclopropylmethoxy-benzo[1,3]dioxol-4-yl)-5H-pyrrolo[3,2-d]pyrimidine-7-carboxylic acid [4-((S)-2-hydroxy-propionyl)-morpholin-2-ylmethyl]-amide] gave a 50% inhibitory concentration (IC50) of 0.832 nM.

As for `O=C(NC1CN(C(=O)CO)C1)c1c[nH]c2c(-c3c(OCC4CC4)ccc4c3OCO4)ncnc12` [Example 195, 4-(5-Cyclopropylmethoxy-benzo[1,3]dioxol-4-yl)-5H-pyrrolo[3,2-d]pyrimidine-7-carboxylic acid [1-(2-hydroxy-ethanoyl)-azetidin-3-yl]-amide], the concentration for half-maximal inhibition (IC50) was 1.32 nM.

The compound `C[C@H](O)C(=O)N1CC(NC(=O)c2c[nH]c3c(-c4c(OCC5CC5)ccc5c4OCO5)ncnc23)C1` [Example 196, 4-(5-Cyclopropylmethoxy-benzo[1,3]dioxol-4-yl)-5H-pyrrolo[3,2-d]pyrimidine-7-carboxylic acid [1-((S)-2-hydroxy-propanoyl)azetidin-3-yl]-amide] had an IC50 of 0.759 nM.

`C[C@H](O)C(=O)N1CCC[C@H](NC(=O)c2c[nH]c3c(-c4c(OCC5CC5)ccc5c4OCO5)ncnc23)C1` [Example 197, 4-(5-Cyclopropylmethoxy-benzo[1,3]dioxol-4-yl)-5H-pyrrolo[3,2-d]pyrimidine-7-carboxylic acid [(S)-1-((S)-2-hydroxy-propanoyl)piperidin-3-yl]-amide]: inhibition was half-maximal at 0.851 nM (IC50).

Compound `C[C@H](O)C(=O)N1CCC[C@@H](NC(=O)c2c[nH]c3c(-c4c(OCC5CC5)ccc5c4OCO5)ncnc23)C1` [Example 198, 4-(5-Cyclopropylmethoxy-benzo[1,3]dioxol-4-yl)-5H-pyrrolo[3,2-d]pyrimidine-7-carboxylic acid [(R)-1-((S)-2-hydroxy-propanoyl)piperidin-3-yl]-amide] showed an IC50 of 0.617 nM.

In turn, `COc1ccc(-c2ncnc3c(C(=O)N[C@H]4CC[C@H](NC(=O)CO)CC4)c[nH]c23)c(OCC2CC2)c1` [Example 199, trans-4-(2-Cyclopropylmethoxy-4-methoxy-phenyl)-5H-pyrrolo[3,2-d]pyrimidine-7-carboxylic acid [4-(2-hydroxy-acetylamino)-cyclohexyl]-amide] showed a half-maximal inhibitory concentration (IC50) of 0.589 nM.

`COc1ccc(-c2ncnc3c(C(=O)N[C@H]4CC[C@H](NC(=O)[C@H](C)O)CC4)c[nH]c23)c(OCC2CC2)c1` [Example 200, trans-4-(2-Cyclopropylmethoxy-4-methoxy-phenyl)-5H-pyrrolo[3,2-d]pyrimidine-7-carboxylic acid [4-((S)-2-hydroxy-propionylamino)-cyclohexyl]-amide]: the half-inhibitory concentration (IC50) is 0.479 nM.

`COc1ccc(-c2ncnc3c(C(=O)N[C@H]4CC[C@H](NC(=O)C5(O)CC5)CC4)c[nH]c23)c(OCC2CC2)c1` [Example 201, trans-4-(2-Cyclopropylmethoxy-4-methoxy-phenyl)-5H-pyrrolo[3,2-d]pyrimidine-7-carboxylic acid {4-[(1-hydroxy-cyclopropanecarbonyl)-amino]-cyclohexyl}-amide] had a half-inhibitory concentration (IC50) of 0.407 nM.

With `COc1ccc(-c2ncnc3c(C(=O)N[C@H]4CC[C@@H](NC(=O)CO)CC4)c[nH]c23)c(OCC2CC2)c1` [Example 202, cis-4-(2-Cyclopropylmethoxy-4-methoxy-phenyl)-5H-pyrrolo[3,2-d]pyrimidine-7-carboxylic acid [4-(2-hydroxy-acetylamino)-cyclohexyl]-amide], the half-inhibitory concentration (IC50) is 0.741 nM.

The compound `COc1ccc(-c2ncnc3c(C(=O)N[C@H]4CC[C@@H](NC(=O)[C@H](C)O)CC4)c[nH]c23)c(OCC2CC2)c1` [Example 203, cis-4-(2-Cyclopropylmethoxy-4-methoxy-phenyl)-5H-pyrrolo[3,2-d]pyrimidine-7-carboxylic acid [4-((S)-2-hydroxy-propionylamino)-cyclohexyl]-amide] had an IC50 of 0.389 nM.

The compound `COc1ccc(-c2ncnc3c(C(=O)N[C@H]4CC[C@@H](NC(=O)C5(O)CC5)CC4)c[nH]c23)c(OCC2CC2)c1` [Example 204, cis-4-(2-Cyclopropylmethoxy-4-methoxy-phenyl)-5H-pyrrolo[3,2-d]pyrimidine-7-carboxylic acid {-[(1-hydroxy-cyclopropanecarbonyl)-amino]-cyclohexyl}-amide] gave an IC50 of 0.257 nM.

On to `COc1ccc(-c2ncnc3c(C(=O)NC4CCN(C(=O)CO)CC4)c[nH]c23)c(OCC2CC2)c1` [Example 205, 4-(2-Cyclopropylmethoxy-4-methoxy-phenyl)-5H-pyrrolo[3,2-d]pyrimidine-7-carboxylic acid [1-(2-hydroxy-ethanoyl)-piperidin-4-yl]amide], for which half-maximal inhibition (IC50) was put at 0.832 nM.

`COc1ccc(-c2ncnc3c(C(=O)NC4CCN(C(=O)[C@H](C)O)CC4)c[nH]c23)c(OCC2CC2)c1` [Example 206, 4-(2-Cyclopropylmethoxy-4-methoxy-phenyl)-5H-pyrrolo[3,2-d]pyrimidine-7-carboxylic acid [1-((S)-2-hydroxy-propanoyl)piperidin-4-yl]-amide] had an IC50 of 0.661 nM.

Regarding `COc1ccc(-c2ncnc3c(C(=O)NC4CCN(C(=O)C5(O)CC5)CC4)c[nH]c23)c(OCC2CC2)c1` [Example 207, 4-(2-Cyclopropylmethoxy-4-methoxy-phenyl)-5H-pyrrolo[3,2-d]pyrimidine-7-carboxylic acid {1-[1-(1-hydroxy-cyclopropyl)-methanoyl]-piperidin-4-yl}-amide], half-maximal inhibition (IC50) was put at 0.245 nM.

Take `COc1ccc(OCC2CC2)c(-c2ncnc3c(C(=O)N[C@H]4CC[C@@H](NC(=O)CO)CC4)c[nH]c23)c1` [Example 208, cis-4-(2-Cyclopropylmethoxy-5-methoxy-phenyl)-5H-pyrrolo[3,2-d]pyrimidine-7-carboxylic acid [4-(2-hydroxy-acetylamino)-cyclohexyl]-amide]: the IC50 is 1.86 nM.

The compound `COc1ccc(OCC2CC2)c(-c2ncnc3c(C(=O)N[C@H]4CC[C@@H](NC(=O)C5(O)CC5)CC4)c[nH]c23)c1` [Example 209, cis-4-(2-Cyclopropylmethoxy-5-methoxy-phenyl)-5H-pyrrolo[3,2-d]pyrimidine-7-carboxylic acid {4-[(1-hydroxy-cyclopropanecarbonyl)-amino]-cyclohexyl}-amide] had a half-maximal inhibitory concentration (IC50) of 0.692 nM.

Consider `COc1ccc(OCC2CC2)c(-c2ncnc3c(C(=O)N[C@H]4CC[C@H](NC(=O)C5(O)CC5)CC4)c[nH]c23)c1` [Example 210, trans-4-(2-Cyclopropylmethoxy-5-methoxy-phenyl)-5H-pyrrolo[3,2-d]pyrimidine-7-carboxylic acid {4-[(1-hydroxy-cyclopropanecarbonyl)-amino]-cyclohexyl}-amide], for which half-maximal inhibition (IC50) was put at 0.646 nM.

For the compound `COc1ccc(OCC2CC2)c(-c2ncnc3c(C(=O)NC4CCN(C(=O)CO)CC4)c[nH]c23)c1` [Example 211, 4-(2-Cyclopropylmethoxy-5-methoxy-phenyl)-5H-pyrrolo[3,2-d]pyrimidine-7-carboxylic acid [1-(2-hydroxy-acetyl)piperidin-4-yl]-amide], the 50% inhibitory concentration (IC50) was 2.34 nM.

For the compound `COc1ccc(OCC2CC2)c(-c2ncnc3c(C(=O)NC4CCN(C(=O)[C@H](C)O)CC4)c[nH]c23)c1` [Example 212, 4-(2-Cyclopropylmethoxy-5-methoxy-phenyl)-5H-pyrrolo[3,2-d]pyrimidine-7-carboxylic acid [1-((S)-2-hydroxy-propionyl)piperidin-4-yl]-amide], 1.07 nM corresponded to half-maximal inhibition (IC50).

With `COc1ccc(OCC2CC2)c(-c2ncnc3c(C(=O)NC4CCN(C(=O)C5(O)CC5)CC4)c[nH]c23)c1` [Example 213, 4-(2-Cyclopropylmethoxy-5-methoxy-phenyl)-5H-pyrrolo[3,2-d]pyrimidine-7-carboxylic acid [1-(1-hydroxy-cyclopropanecarbonyl)-piperidin-4-yl]-amide], the concentration for half-maximal inhibition (IC50) is 0.55 nM.

For the compound `O=C(CO)N[C@H]1CC[C@@H](NC(=O)c2c[nH]c3c(-c4ccc(F)cc4OCC4CC4)ncnc23)CC1` [Example 214, cis-4-(2-Cyclopropylmethoxy-4-fluoro-phenyl)-5H-pyrrolo[3,2-d]pyrimidine-7-carboxylic acid [4-(2-hydroxy-acetylamino)-cyclohexyl]-amide], inhibition was half-maximal at 2.63 nM (IC50).

Take `C[C@H](O)C(=O)N[C@H]1CC[C@@H](NC(=O)c2c[nH]c3c(-c4ccc(F)cc4OCC4CC4)ncnc23)CC1` [Example 215, cis-4-(2-Cyclopropylmethoxy-4-fluoro-phenyl)-5H-pyrrolo[3,2-d]pyrimidine-7-carboxylic acid [4-((S)-2-hydroxy-propionylamino)-cyclohexyl]-amide]: the IC50 is 2.57 nM.

With `O=C(N[C@H]1CC[C@@H](NC(=O)C2(O)CC2)CC1)c1c[nH]c2c(-c3ccc(F)cc3OCC3CC3)ncnc12` [Example 216, cis-4-(2-Cyclopropylmethoxy-4-fluoro-phenyl)-5H-pyrrolo[3,2-d]pyrimidine-7-carboxylic acid {4-[(1-hydroxy-cyclopropanecarbonyl)-amino]-cyclohexyl}-amide], the IC50 is 1.51 nM.

The compound `O=C(CO)N[C@H]1CC[C@H](NC(=O)c2c[nH]c3c(-c4ccc(F)cc4OCC4CC4)ncnc23)CC1` [Example 217, trans-4-(2-Cyclopropylmethoxy-4-fluoro-phenyl)-5H-pyrrolo[3,2-d]pyrimidine-7-carboxylic acid [4-(2-hydroxy-acetylamino)-cyclohexyl]-amide] gave an IC50 of 2.24 nM.

For the compound `C[C@H](O)C(=O)N[C@H]1CC[C@H](NC(=O)c2c[nH]c3c(-c4ccc(F)cc4OCC4CC4)ncnc23)CC1` [Example 218, trans-4-(2-Cyclopropylmethoxy-4-fluoro-phenyl)-5H-pyrrolo[3,2-d]pyrimidine-7-carboxylic acid [4-((S)-2-hydroxy-propionylamino)-cyclohexyl]-amide], half-maximal inhibition (IC50) was put at 2.51 nM.
